Data published in patent US10870647B2, “Imidazopyridine derivative, method for preparing same, and pharmaceutical composition containing same as active ingredient for preventing or treating cancer” (DAEGU-GYEONGBUK MEDICAL INNOVATION FOUNDATION, priority 2016, dated 2020).
Read-outs that look alike come from different tables or passages of the source.

Key:
Test in all cases: Kinase selectivity, scanMAX Kinase assay panel (DiscoverX), % control at 1 uM
Assay type in all cases: binding
[1] = target: T1, scanMAX Kinase assay panel (Homo sapiens, UniProt P00533, DEL746-750); settings: EGFR (E746-A750del); 1 uM; read-out: Percent Control (%)
T1 construct: purchased DiscoverX
In short: (§1)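 A single concentration of 1 uM, in DMSO, is applied across the kinase panel. Activity against an individual enzyme is assigned where % control is less than 35.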

[2] = target: T2, scanMAX Kinase assay panel (Homo sapiens, UniProt P54764); settings: EPHA4; 1 uM; read-out: Percent Control (%)
T2 construct: purchased DiscoverX
In short: as §1

[3] = target: T3, scanMAX Kinase assay panel (Homo sapiens, UniProt P12931); settings: SRC; 1 uM; read-out: Percent Control (%)
T3 construct: purchased DiscoverX
T3 sequence (P12931 whole entry): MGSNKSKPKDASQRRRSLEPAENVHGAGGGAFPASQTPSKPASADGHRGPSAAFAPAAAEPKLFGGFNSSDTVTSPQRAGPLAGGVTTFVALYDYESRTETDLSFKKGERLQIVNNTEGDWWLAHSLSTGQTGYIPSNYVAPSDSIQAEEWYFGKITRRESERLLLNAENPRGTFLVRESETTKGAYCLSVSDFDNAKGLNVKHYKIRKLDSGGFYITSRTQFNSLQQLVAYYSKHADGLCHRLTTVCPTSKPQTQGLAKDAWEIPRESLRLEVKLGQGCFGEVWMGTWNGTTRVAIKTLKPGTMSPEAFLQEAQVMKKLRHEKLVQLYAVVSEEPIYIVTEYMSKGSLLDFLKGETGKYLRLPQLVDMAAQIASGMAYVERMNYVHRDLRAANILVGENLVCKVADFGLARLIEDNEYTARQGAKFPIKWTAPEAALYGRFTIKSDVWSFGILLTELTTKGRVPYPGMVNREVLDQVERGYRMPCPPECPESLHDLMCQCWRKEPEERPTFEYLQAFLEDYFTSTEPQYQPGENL
In short: as §1

[4] = target: T4, scanMAX Kinase assay panel (Homo sapiens, UniProt Q5VT25); settings: MRCKA; 1 uM; read-out: Percent Control (%)
T4 construct: purchased DiscoverX
T4 sequence (Q5VT25 whole entry): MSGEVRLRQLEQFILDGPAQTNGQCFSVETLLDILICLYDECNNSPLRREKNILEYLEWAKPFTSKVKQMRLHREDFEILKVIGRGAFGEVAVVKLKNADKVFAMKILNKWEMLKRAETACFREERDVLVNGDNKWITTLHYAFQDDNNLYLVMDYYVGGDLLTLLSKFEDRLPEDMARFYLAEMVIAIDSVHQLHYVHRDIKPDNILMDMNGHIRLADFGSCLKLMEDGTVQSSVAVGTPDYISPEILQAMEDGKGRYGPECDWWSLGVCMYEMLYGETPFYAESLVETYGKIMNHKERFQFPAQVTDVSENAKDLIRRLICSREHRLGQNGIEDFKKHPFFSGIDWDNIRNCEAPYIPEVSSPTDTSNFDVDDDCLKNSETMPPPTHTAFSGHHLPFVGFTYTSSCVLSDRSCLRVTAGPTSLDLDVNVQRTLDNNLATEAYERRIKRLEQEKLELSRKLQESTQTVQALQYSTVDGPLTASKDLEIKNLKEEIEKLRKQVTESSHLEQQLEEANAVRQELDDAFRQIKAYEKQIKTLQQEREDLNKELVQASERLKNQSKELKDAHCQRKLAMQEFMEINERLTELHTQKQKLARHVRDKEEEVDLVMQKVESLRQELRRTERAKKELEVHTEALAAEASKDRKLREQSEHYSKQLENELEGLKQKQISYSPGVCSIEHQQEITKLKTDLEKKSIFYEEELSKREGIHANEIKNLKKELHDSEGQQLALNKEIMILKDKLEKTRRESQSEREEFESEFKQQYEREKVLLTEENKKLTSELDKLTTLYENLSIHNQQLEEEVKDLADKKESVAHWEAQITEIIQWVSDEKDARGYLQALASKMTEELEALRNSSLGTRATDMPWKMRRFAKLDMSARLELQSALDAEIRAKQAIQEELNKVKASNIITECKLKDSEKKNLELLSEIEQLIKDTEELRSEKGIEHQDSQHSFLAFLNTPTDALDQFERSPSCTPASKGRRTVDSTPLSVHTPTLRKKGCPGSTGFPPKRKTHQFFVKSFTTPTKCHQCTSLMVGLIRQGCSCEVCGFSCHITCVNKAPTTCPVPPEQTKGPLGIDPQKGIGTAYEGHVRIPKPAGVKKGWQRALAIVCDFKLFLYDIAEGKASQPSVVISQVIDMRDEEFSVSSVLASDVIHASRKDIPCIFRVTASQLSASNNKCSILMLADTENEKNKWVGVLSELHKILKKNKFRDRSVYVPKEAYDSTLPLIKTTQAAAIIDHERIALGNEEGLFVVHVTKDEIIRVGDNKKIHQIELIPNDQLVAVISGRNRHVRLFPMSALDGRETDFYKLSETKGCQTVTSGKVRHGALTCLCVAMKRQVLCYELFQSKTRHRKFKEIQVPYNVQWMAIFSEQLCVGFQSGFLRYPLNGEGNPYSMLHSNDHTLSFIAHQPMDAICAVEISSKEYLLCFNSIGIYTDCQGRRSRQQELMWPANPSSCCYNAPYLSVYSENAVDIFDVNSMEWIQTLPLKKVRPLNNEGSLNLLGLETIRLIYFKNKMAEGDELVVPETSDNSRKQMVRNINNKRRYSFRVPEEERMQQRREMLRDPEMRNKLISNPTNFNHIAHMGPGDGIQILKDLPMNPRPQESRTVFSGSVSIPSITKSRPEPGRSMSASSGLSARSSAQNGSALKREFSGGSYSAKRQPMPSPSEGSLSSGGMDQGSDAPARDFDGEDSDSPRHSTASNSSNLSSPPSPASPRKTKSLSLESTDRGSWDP
In short: as §1

[5] = target: T5, scanMAX Kinase assay panel (Homo sapiens, UniProt O15075); settings: DCAMKL1; 1 uM; read-out: Percent Control (%)
T5 construct: purchased DiscoverX
In short: as §1

[6] = target: T6, scanMAX Kinase assay panel (Homo sapiens, UniProt O75716); settings: STK16; 1 uM; read-out: Percent Control (%)
T6 construct: purchased DiscoverX
T6 sequence (O75716 whole entry): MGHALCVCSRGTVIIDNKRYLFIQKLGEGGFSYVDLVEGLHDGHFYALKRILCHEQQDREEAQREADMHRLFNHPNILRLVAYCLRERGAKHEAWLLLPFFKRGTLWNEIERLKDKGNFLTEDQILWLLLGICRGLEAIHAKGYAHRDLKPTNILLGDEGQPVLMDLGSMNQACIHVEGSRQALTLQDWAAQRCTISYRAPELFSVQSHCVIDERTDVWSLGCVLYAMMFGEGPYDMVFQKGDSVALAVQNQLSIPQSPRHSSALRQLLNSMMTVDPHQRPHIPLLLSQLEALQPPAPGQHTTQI
In short: as §1

[7] = target: T7, scanMAX Kinase assay panel (Homo sapiens, UniProt Q8WTQ7); settings: GRK7; 1 uM; read-out: Percent Control (%)
T7 construct: purchased DiscoverX
T7 sequence (Q8WTQ7 1-553): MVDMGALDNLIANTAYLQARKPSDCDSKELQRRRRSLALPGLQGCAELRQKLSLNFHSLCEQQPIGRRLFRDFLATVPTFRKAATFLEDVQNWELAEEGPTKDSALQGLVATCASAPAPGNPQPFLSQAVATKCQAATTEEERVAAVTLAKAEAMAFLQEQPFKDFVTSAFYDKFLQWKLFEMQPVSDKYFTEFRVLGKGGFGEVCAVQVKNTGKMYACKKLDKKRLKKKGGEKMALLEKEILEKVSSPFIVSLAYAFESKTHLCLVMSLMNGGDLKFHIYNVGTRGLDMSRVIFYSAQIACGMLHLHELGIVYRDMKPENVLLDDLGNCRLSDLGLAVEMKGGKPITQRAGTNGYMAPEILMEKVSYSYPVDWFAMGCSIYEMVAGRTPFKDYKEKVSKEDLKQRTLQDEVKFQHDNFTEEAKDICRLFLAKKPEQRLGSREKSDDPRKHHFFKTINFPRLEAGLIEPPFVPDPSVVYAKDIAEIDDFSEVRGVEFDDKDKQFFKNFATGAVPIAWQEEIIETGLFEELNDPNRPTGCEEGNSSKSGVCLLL
In short: as §1

[8] = target: T8, scanMAX Kinase assay panel (Homo sapiens, UniProt P00519, Q252H); settings: 1 uM, read-out: Percent Control (%)
T8 construct: purchased DiscoverX
In short: as §1

[9] = target: T9, scanMAX Kinase assay panel (Homo sapiens, UniProt Q16288); settings: TRKC; 1 uM; read-out: Percent Control (%)
T9 construct: purchased DiscoverX
T9 sequence (Q16288 32-839): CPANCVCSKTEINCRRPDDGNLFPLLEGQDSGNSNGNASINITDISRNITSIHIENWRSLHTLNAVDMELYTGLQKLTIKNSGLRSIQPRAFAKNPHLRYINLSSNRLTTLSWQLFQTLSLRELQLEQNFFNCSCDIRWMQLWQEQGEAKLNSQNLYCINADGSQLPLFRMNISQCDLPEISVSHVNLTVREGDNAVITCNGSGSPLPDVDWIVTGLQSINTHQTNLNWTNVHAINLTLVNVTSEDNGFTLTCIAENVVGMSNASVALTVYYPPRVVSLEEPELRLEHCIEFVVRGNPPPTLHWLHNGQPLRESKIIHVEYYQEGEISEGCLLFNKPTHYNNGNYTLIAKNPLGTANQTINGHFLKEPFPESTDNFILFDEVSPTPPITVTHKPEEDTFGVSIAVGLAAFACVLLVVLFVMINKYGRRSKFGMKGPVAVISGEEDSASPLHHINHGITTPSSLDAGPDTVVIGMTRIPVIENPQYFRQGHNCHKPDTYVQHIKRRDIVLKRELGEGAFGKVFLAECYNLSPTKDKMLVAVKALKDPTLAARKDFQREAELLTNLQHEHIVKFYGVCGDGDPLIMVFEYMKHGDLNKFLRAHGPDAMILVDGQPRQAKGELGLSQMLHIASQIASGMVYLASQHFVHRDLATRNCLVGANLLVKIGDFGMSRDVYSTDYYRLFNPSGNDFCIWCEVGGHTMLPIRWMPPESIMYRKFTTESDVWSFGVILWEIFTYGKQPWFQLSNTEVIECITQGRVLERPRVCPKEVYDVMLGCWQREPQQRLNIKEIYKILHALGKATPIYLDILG
In short: as §1

[10] = target: T10, scanMAX Kinase assay panel (Homo sapiens, UniProt Q14004); settings: CDC2L5; 1 uM; read-out: Percent Control (%)
T10 construct: purchased DiscoverX
T10 sequence (Q14004 whole entry): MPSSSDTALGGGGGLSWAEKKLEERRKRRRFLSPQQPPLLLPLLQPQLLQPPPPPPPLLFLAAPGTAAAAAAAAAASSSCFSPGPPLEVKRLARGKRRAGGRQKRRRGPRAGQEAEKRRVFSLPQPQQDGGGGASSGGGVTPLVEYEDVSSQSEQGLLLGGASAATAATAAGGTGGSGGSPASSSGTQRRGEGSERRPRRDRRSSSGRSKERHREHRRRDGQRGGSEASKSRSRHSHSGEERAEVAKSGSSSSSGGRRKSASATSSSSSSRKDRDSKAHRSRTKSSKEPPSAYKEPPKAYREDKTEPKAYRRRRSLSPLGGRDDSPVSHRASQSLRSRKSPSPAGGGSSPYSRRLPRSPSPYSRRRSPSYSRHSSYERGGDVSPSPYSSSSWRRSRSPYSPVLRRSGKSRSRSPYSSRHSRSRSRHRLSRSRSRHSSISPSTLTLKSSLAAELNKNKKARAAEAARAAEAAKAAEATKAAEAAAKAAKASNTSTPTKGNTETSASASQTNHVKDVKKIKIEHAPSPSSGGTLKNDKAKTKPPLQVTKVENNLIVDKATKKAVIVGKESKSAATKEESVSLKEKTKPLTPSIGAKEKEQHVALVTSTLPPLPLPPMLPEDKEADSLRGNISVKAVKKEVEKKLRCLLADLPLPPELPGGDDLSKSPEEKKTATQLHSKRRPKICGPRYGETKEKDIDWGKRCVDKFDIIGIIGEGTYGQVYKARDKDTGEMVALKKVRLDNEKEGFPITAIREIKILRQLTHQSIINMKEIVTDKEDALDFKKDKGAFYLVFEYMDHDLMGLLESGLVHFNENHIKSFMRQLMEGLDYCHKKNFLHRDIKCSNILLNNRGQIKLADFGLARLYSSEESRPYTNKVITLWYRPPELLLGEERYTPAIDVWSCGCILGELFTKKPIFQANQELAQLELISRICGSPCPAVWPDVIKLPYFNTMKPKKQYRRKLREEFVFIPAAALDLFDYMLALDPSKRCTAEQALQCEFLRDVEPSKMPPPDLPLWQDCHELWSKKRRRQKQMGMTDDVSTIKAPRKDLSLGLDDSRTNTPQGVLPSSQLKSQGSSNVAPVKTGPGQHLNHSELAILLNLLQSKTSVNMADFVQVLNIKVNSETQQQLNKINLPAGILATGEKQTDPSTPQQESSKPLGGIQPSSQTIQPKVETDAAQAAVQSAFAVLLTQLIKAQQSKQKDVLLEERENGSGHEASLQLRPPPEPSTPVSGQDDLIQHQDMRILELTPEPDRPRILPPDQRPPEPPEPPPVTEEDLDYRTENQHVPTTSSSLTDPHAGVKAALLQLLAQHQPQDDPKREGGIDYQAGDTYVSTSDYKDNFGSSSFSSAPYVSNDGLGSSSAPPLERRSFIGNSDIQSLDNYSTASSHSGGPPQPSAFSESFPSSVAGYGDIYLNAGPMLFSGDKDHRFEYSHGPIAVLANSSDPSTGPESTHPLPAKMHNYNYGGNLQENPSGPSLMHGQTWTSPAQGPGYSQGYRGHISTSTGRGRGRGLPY
In short: as §1

[11] = target: T11, scanMAX Kinase assay panel (Homo sapiens, UniProt P37173); settings: TGFBR2; 1 uM; read-out: Percent Control (%)
T11 construct: purchased DiscoverX
In short: as §1

[12] = target: T12, scanMAX Kinase assay panel (Homo sapiens, UniProt Q9NRM7); settings: LATS2; 1 uM; read-out: Percent Control (%)
T12 construct: purchased DiscoverX
T12 sequence (Q9NRM7 1-1088): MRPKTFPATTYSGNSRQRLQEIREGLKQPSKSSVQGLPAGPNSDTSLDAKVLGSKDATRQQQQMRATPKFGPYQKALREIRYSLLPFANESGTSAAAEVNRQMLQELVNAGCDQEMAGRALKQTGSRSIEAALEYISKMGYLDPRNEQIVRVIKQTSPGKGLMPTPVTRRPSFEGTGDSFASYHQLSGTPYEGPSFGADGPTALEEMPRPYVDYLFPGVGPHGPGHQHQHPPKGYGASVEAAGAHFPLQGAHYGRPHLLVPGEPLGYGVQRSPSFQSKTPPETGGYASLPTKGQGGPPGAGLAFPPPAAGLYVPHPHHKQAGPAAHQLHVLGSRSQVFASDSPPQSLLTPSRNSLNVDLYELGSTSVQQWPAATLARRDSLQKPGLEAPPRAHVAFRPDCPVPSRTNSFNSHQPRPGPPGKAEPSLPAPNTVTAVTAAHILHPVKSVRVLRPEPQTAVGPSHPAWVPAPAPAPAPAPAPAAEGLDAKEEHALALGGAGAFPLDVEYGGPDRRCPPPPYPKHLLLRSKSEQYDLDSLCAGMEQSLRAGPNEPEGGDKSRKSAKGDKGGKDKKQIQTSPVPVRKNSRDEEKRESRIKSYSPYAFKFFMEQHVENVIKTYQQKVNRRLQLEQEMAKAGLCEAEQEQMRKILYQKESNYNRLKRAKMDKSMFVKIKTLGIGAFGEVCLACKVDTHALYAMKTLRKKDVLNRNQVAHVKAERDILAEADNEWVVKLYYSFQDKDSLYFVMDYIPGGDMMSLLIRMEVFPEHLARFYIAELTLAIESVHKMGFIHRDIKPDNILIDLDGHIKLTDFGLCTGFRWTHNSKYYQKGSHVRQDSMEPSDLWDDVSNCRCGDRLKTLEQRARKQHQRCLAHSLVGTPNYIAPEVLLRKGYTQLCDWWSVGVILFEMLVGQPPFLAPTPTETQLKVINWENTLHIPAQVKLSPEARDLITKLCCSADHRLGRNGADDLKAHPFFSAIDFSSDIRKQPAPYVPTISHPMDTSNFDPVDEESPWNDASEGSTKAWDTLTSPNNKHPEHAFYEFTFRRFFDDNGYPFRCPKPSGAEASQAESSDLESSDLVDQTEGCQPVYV
In short: as §1

| Compound | remaining binding at 1 µM [1] [%] | remaining binding at 1 µM [2] [%] | remaining binding at 1 µM [3] [%] | remaining binding at 1 µM [4] [%] | remaining binding at 1 µM [5] [%] | remaining binding at 1 µM [6] [%] | remaining binding at 1 µM [7] [%] | remaining binding at 1 µM ([8]; ABL1 (Q252H)-nonphosphorylated) [%] | remaining binding at 1 µM ([8]; ABL1 (Q252H)-phosphorylated) [%] | remaining binding at 1 µM [9] [%] | remaining binding at 1 µM [10] [%] | remaining binding at 1 µM [11] [%] | remaining binding at 1 µM [12] [%] |
| --- | --- | --- | --- | --- | --- | --- | --- | --- | --- | --- | --- | --- | --- |
| Cc1ccc(C(=O)Nc2ccc(CN3CCN(C)CC3)c(C(F)(F)F)c2)cc1C#Cc1cnc2c(Nc3cnn(C)c3)cccn12 [Example 1, 4-methyl-3-((8-((1-methyl-1H-pyrazol-4-yl)amino)imidazo[1,2-a]pyridin-3-yl)ethynyl)-N-(4-((4-methylpiperazin-1-yl)methyl)-3-(trifluoromethyl)phenyl)benzamide] | 0 | 1 | 0 | 96 | 54 | 38 | 81 | 7 | 0 | 0 | 5 | 24 | 67 |
| Cc1cn(-c2cc(NC(=O)c3ccc(C)c(C#Cc4cnc5c(Nc6cnn(C)c6)cccn45)c3)cc(C(F)(F)F)c2)cn1 [Example 12, 4-methyl-N-(3-(4-methyl-1H-imidazol-1-yl)-5-(trifluoromethyl)phenyl)-3-((8-((1-methyl-1H-pyrazol-4-yl)amino)imidazo[1,2-a]pyridin-3-yl)ethynyl)benzamide] | 8 | 24 | 1 | 91 | 91 | 70 | 100 | 3 | 14 | 3 | 27 | 94 | 98 |
| Cc1ccc(NC(=O)C2(C(=O)Nc3ccc(F)cc3)CC2)cc1C#Cc1cnc2c(Nc3cnn(C(C)C)c3)cccn12 [Example 78] | 93 | 91 | 73 | 100 | 95 | 99 | 92 | 6 | 91 | 96 | 100 | 100 | 100 |
